Data taken from ChEMBL document CHEMBL1201862, “PubChem BioAssay data set” (2004).
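All cell lines were grown in 96-well plates and treated with compound for 48 hours. The concentration for 50% growth inhibition is given as GI50.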 Active and inactive are the calls of the source. Rule as the data show it: active = GI50 up to about 1.1 µM and inactive = higher.

Key:
Experiment in all cases: NCI tumour cell line growth inhibition, 48 h
[1] = system: K562
[2] = system: KM12
[3] = system: OVCAR-3
[4] = system: SN12C
[5] = system: IGROV-1
[6] = system: RXF 393
[7] = system: SF-268
[8] = system: SK-OV-3
[9] = system: SK-MEL-5
[10] = system: NCI-H23
[11] = system: NCI-H460
[12] = system: NCI-H226
[13] = system: LOX IMVI
[14] = system: M14
[15] = system: SF-295
[16] = system: MCF7
[17] = system: TK-10
[18] = system: Malme-3M
[19] = system: SW-620
[20] = system: U-251

| Structure (SMILES) | GI50 [1] | GI50 [2] | GI50 [3] | GI50 [4] | GI50 [5] | GI50 [6] | GI50 [7] | GI50 [8] | GI50 [9] | GI50 [10] | GI50 [11] | GI50 [12] | GI50 [13] | GI50 [14] | GI50 [15] | GI50 [16] | GI50 [17] | GI50 [18] | GI50 [19] | GI50 [20] |
| --- | --- | --- | --- | --- | --- | --- | --- | --- | --- | --- | --- | --- | --- | --- | --- | --- | --- | --- | --- | --- |
| O=S(=O)([N-]c1nc2ccccc2nc1-[n+]1ccccc1)c1ccccc1 | 29.9 µM (inactive) | > 100 µM (inactive) | > 100 µM (inactive) | > 100 µM (inactive) | > 100 µM (inactive) | > 100 µM (inactive) | > 100 µM (inactive) | > 100 µM (inactive) | > 100 µM (inactive) | 67.8 µM (inactive) | > 100 µM (inactive) | > 100 µM (inactive) | > 100 µM (inactive) | > 100 µM (inactive) | > 100 µM (inactive) | > 100 µM (inactive) | 71.4 µM (inactive) | > 100 µM (inactive) | – | – |
| C[C@H]1CCC/C=C/[C@@H]2C[C@H](OC3OC(CO)C(O)C(O)C3O)C[C@H]2[C@H](O)/C=C/C(=O)O1 (some centres not stated) | > 100 µM (inactive) | 31.3 µM (inactive) | 55.6 µM (inactive) | > 100 µM (inactive) | > 100 µM (inactive) | 19 µM (inactive) | 72.8 µM (inactive) | 40 µM (inactive) | 17.2 µM (inactive) | 53.1 µM (inactive) | 78.9 µM (inactive) | 22.5 µM (inactive) | 36.1 µM (inactive) | 46.9 µM (inactive) | 77.6 µM (inactive) | 62.4 µM (inactive) | 91.2 µM (inactive) | 17.8 µM (inactive) | 35.9 µM (inactive) | 94 µM (inactive) |
| O=c1ccn(CC2(CO)CCC2)c(=O)[nH]1 | > 100 µM (inactive) | > 100 µM (inactive) | > 100 µM (inactive) | > 100 µM (inactive) | > 100 µM (inactive) | > 100 µM (inactive) | > 100 µM (inactive) | > 100 µM (inactive) | > 100 µM (inactive) | > 100 µM (inactive) | > 100 µM (inactive) | > 100 µM (inactive) | > 100 µM (inactive) | – | > 100 µM (inactive) | > 100 µM (inactive) | > 100 µM (inactive) | > 100 µM (inactive) | > 100 µM (inactive) | > 100 µM (inactive) |
| Cn1c(-c2cccc([N+](=O)[O-])c2)[n+](C)c2ccccc21 | > 100 µM (inactive) | > 100 µM (inactive) | 30.8 µM (inactive) | – | 44.4 µM (inactive) | > 100 µM (inactive) | 87.7 µM (inactive) | > 100 µM (inactive) | 76.7 µM (inactive) | 25.7 µM (inactive) | > 100 µM (inactive) | > 100 µM (inactive) | > 100 µM (inactive) | > 100 µM (inactive) | > 100 µM (inactive) | > 100 µM (inactive) | > 100 µM (inactive) | 89.3 µM (inactive) | > 100 µM (inactive) | > 100 µM (inactive) |
| Cc1ccc(-c2cc(-c3ccc(Cl)cc3)nc(/N=C3\C(=O)N(CN4CCOCC4)c4ccc(Cl)cc43)n2)cc1 | 10.5 µM (inactive) | 22.2 µM (inactive) | 33.3 µM (inactive) | 24.7 µM (inactive) | 13 µM (inactive) | 13.8 µM (inactive) | 22.6 µM (inactive) | 35.6 µM (inactive) | 18.1 µM (inactive) | 19.6 µM (inactive) | 20.9 µM (inactive) | 54.1 µM (inactive) | 31.8 µM (inactive) | 26.4 µM (inactive) | 35.7 µM (inactive) | 17.5 µM (inactive) | 26.4 µM (inactive) | > 100 µM (inactive) | 6.49 µM (inactive) | 17.7 µM (inactive) |
| CSc1c(C#N)c(O)n(-c2ccc(C)cc2)c(=O)c1C(C)=O | > 100 µM (inactive) | > 100 µM (inactive) | > 100 µM (inactive) | > 100 µM (inactive) | > 100 µM (inactive) | > 100 µM (inactive) | > 100 µM (inactive) | > 100 µM (inactive) | > 100 µM (inactive) | > 100 µM (inactive) | > 100 µM (inactive) | > 100 µM (inactive) | > 100 µM (inactive) | 94.6 µM (inactive) | – | > 100 µM (inactive) | > 100 µM (inactive) | > 100 µM (inactive) | > 100 µM (inactive) | > 100 µM (inactive) |
| CCC1NC(=O)C1NC(=O)OC (configuration not stated) | > 100 µM (inactive) | > 100 µM (inactive) | > 100 µM (inactive) | > 100 µM (inactive) | > 100 µM (inactive) | > 100 µM (inactive) | – | > 100 µM (inactive) | > 100 µM (inactive) | > 100 µM (inactive) | > 100 µM (inactive) | > 100 µM (inactive) | > 100 µM (inactive) | > 100 µM (inactive) | > 100 µM (inactive) | > 100 µM (inactive) | > 100 µM (inactive) | > 100 µM (inactive) | > 100 µM (inactive) | > 100 µM (inactive) |
| COc1cc2c(cc1O)c(O)cc1c3cc(OC)c(OC)cc3c[n+](C)c21 | 5.04 µM (inactive) | > 100 µM (inactive) | 20.7 µM (inactive) | 1.24 µM (inactive) | – | > 67.5 µM (inactive) | < 0.01 µM (active) | > 100 µM (inactive) | 19 µM (inactive) | 4.69 µM (inactive) | 15.9 µM (inactive) | 9.62 µM (inactive) | 16.2 µM (inactive) | > 100 µM (inactive) | 18.7 µM (inactive) | 8.73 µM (inactive) | > 100 µM (inactive) | 32.9 µM (inactive) | 28.2 µM (inactive) | 0.582 µM (active) |
| CN(C)c1ccc(C2CC(=O)CC(c3ccc(N(C)C)cc3)C23C(=O)NC(=S)NC3=O)cc1 (configuration not stated) | > 100 µM (inactive) | > 100 µM (inactive) | > 100 µM (inactive) | > 100 µM (inactive) | – | 45.7 µM (inactive) | 33.2 µM (inactive) | > 100 µM (inactive) | > 100 µM (inactive) | 91.2 µM (inactive) | > 100 µM (inactive) | > 100 µM (inactive) | > 100 µM (inactive) | > 100 µM (inactive) | 57.9 µM (inactive) | 86.1 µM (inactive) | > 100 µM (inactive) | > 100 µM (inactive) | > 100 µM (inactive) | 30.6 µM (inactive) |
| Cc1ccc2nc3c(=O)[nH]c(=O)nc-3n(C)c2c1C | > 100 µM (inactive) | > 100 µM (inactive) | > 100 µM (inactive) | > 100 µM (inactive) | > 100 µM (inactive) | > 100 µM (inactive) | > 100 µM (inactive) | > 100 µM (inactive) | > 100 µM (inactive) | > 100 µM (inactive) | > 100 µM (inactive) | > 100 µM (inactive) | > 100 µM (inactive) | > 100 µM (inactive) | > 100 µM (inactive) | > 100 µM (inactive) | > 100 µM (inactive) | > 100 µM (inactive) | > 100 µM (inactive) | > 100 µM (inactive) |
| O=S1(=O)CS(=O)(=O)OCCO1 | 60 µM (inactive) | 51.4 µM (inactive) | 40.3 µM (inactive) | 66.1 µM (inactive) | 33.4 µM (inactive) | 41.6 µM (inactive) | 15.1 µM (inactive) | 28.5 µM (inactive) | 40.1 µM (inactive) | 37.8 µM (inactive) | 12.9 µM (inactive) | 41.4 µM (inactive) | 16.8 µM (inactive) | 47.3 µM (inactive) | 13.2 µM (inactive) | 51.8 µM (inactive) | 82.8 µM (inactive) | 55.1 µM (inactive) | 40.9 µM (inactive) | 21.3 µM (inactive) |
| CCCCCCCCCCCCCCCCOP(=O)(O)OP(=O)(O)OCC1OC(n2ccc(N)nc2=O)CC1O (configuration not stated) | > 100 µM (inactive) | > 100 µM (inactive) | > 100 µM (inactive) | > 100 µM (inactive) | > 100 µM (inactive) | > 100 µM (inactive) | > 100 µM (inactive) | > 100 µM (inactive) | > 100 µM (inactive) | > 100 µM (inactive) | > 100 µM (inactive) | > 100 µM (inactive) | > 100 µM (inactive) | > 100 µM (inactive) | > 100 µM (inactive) | > 100 µM (inactive) | > 100 µM (inactive) | > 100 µM (inactive) | > 100 µM (inactive) | > 100 µM (inactive) |
| CC[C@]12C=CCN3CCC4(c5cc([C@@]6(C(=O)OC)CC7CN(CCc8c6[nH]c6ccccc86)CC6CCCCC67)c(OC)cc5N(C)C4[C@](O)(C(=O)OC)C1OC(C)=O)[C@@H]32 (some centres not stated) | < 0.01 µM (active) | < 0.01 µM (active) | < 0.01 µM (active) | < 0.01 µM (active) | < 0.01 µM (active) | < 0.01 µM (active) | < 0.01 µM (active) | < 0.01 µM (active) | < 0.01 µM (active) | < 0.01 µM (active) | < 0.01 µM (active) | < 0.01 µM (active) | < 0.01 µM (active) | < 0.01 µM (active) | < 0.01 µM (active) | < 0.01 µM (active) | 0.0643 µM (active) | < 0.01 µM (active) | < 0.01 µM (active) | < 0.01 µM (active) |
| O=Cc1ccc(-c2cccs2)s1 | 34.3 µM (inactive) | > 100 µM (inactive) | 12.4 µM (inactive) | > 100 µM (inactive) | 12.6 µM (inactive) | 18.4 µM (inactive) | > 96.8 µM (inactive) | > 100 µM (inactive) | 58.1 µM (inactive) | > 68.1 µM (inactive) | 33.5 µM (inactive) | 1.94 µM (inactive) | > 91.8 µM (inactive) | > 100 µM (inactive) | > 100 µM (inactive) | 1.16 µM (inactive) | 3.88 µM (inactive) | > 100 µM (inactive) | 72.4 µM (inactive) | 12.2 µM (inactive) |
